Measurements: patent US6737383B1, “Herbicidal oxadiazolidines” (priority 1999, dated 2004)

What was measured:
crabgrass = assay: Test B pre/postemergence crabgrass; format: in vivo, Digitaria sanguinalis
Method in brief: (§1)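 Response is a visual 0-to-10 score relative to untreated plants, where 0 means no effect and 10 means complete control, taken twelve to sixteen days after application. Treatments went onto soil at planting and onto foliage of 1- to 4-leaf plants, using a surfactant-containing non-phytotoxic solvent.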

rape = assay: Test B pre/postemergence rape; format: in vivo, Brassica napus
Method in brief: as §1

purple nutsedge = assay: Test B pre/postemergence purple nutsedge; format: in vivo, Cyperus rotundus
Method in brief: as §1

blackgrass = assay: Test B pre/postemergence blackgrass; format: in vivo, Alopecurus myosuroides
Method in brief: as §1

rice = assay: Test B flood test rice; format: in vivo, Oryza sativa
Method in brief: (§2)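 Plants were grown to the 2-leaf stage before treatment with test chemical, then held in a greenhouse for twelve to sixteen days. Injury was visually rated against untreated controls on a 0–10 scale, where 0 is no effect and 10 is complete control.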

wild oat = assay: Test B pre/postemergence wild oat; format: in vivo, Avena fatua
Method in brief: as §1

soybean = assay: Test B pre/postemergence soybean; format: in vivo, Glycine max
Method in brief: as §1

wheat = assay: Test B pre/postemergence wheat; format: in vivo, Triticum aestivum
Method in brief: as §1

velvetleaf = assay: Test B pre/postemergence velvetleaf; format: in vivo, Abutilon theophrasti
Method in brief: as §1

pigweed = assay: Test B pre/postemergence pigweed; format: in vivo, Amaranthus retroflexus
Method in brief: as §1

surinam grass = assay: Test B pre/postemergence surinam grass; format: in vivo, Brachiaria decumbens
Method in brief: as §1

cocklebur = assay: Test B pre/postemergence cocklebur; format: in vivo, Xanthium strumarium
Method in brief: as §1

bedstraw = assay: Test B pre/postemergence bedstraw; format: in vivo, Galium aparine; conditions: Preemergence
Method in brief: as §1

bamyardgrass = assay: Test B flood test barnyardgrass; format: in vivo, Echinochloa crus-galli
Method in brief: as §2

corn = assay: Test B pre/postemergence corn; format: in vivo, Zea mays
Method in brief: as §1

morningglory = assay: Test B pre/postemergence morningglory; format: in vivo, Ipomoea hederacea
Method in brief: as §1

smallflower flatsedge = assay: Test B flood test smallflower flatsedge; format: in vivo, Cyperus difformis
Method in brief: as §2

sugar beet = assay: Test B pre/postemergence sugar beet; format: in vivo, Beta vulgaris
Method in brief: as §1

duck salad = assay: Test B flood test duck salad; format: in vivo, Heteranthera limosa
Method in brief: as §2

giant foxtail = assay: Test B pre/postemergence giant foxtail; format: in vivo, Setaria faberii
Method in brief: as §1

[1] = Postemergence, Rate 31 g/ha, visual rating, scale 0 to 10 (0 no effect, 10 complete control)
[2] = Postemergence, Rate 125 g/ha, scale 0 to 10, 0 is no effect, 10 is complete control
[3] = Postemergence, Rate 250 g/ha, scale 0 to 10, 0 is no effect, 10 is complete control
[4] = Preemergence, Rate 31 g/ha, visual rating, scale 0 to 10 (0 no effect, 10 complete control)
[5] = Preemergence, Rate 62 g/ha, scale 0 to 10 (0 no effect, 10 complete control)
[6] = Preemergence, Rate 125 g/ha, scale of 0 to 10 where 0 is no effect and 10 is complete control
[7] = Preemergence, Rate 250 g/ha, scale of 0 to 10 where 0 is no effect and 10 is complete control
[8] = Rate 62 g/ha, Postemergence, scale of 0 to 10 where 0 is no effect and 10 is complete control
[9] = Rate 31 g/ha, Pre-emergence section (flood test species), scale 0 to 10
[10] = Rate 62 g/ha, flood test species, Pre-emergence, visual evaluation after twelve to sixteen days
[11] = Rate 125 g/ha, under heading Pre-emergence, flood test species, visual evaluation after twelve to sixteen days
[12] = Rate 250 g/ha, Pre-emergence, flood-test species, scale 0 to 10, 0 is no effect, 10 is complete control

CC(C)N(C(=O)n1oc(=O)n([C@@H]2C[C@H]2C)c1=O)c1ccc(F)cc1 (relative stereo) [Compound 392]
9: Plant response rating, Wild oats (wild oat; [6]) | B. signalgrass plant response rating (surinam grass; [7]) | Corn plant response rating (corn; [7]) | Plant response rating, Giant foxtail (giant foxtail; [2]) | Plant response rating, Giant foxtail (giant foxtail; [3])
8: Crabgrass plant response rating (crabgrass; [4]) | Plant response rating, Blackgrass (blackgrass; [6]) | Wheat plant response rating (wheat; [7]) | Plant response rating, Bedstraw (bedstraw; Rate 125 g/ha, scale of 0 to 10 where 0 is no effect and 10 is complete control)
1: Crabgrass plant response rating (crabgrass; [1]) | Soybean plant response rating (soybean; [1]) | Soybean plant response rating (soybean; [8]) | B. signalgrass plant response rating (surinam grass; [8])
3: Plant response rating, Wheat (wheat; [6]) | Plant response rating, Velvetleaf (velvetleaf; [6]) | Plant response rating, B. signalgrass (surinam grass; [6]) | Plant response rating, Corn (corn; [6]) | Morningglory plant response rating (morningglory; [1]) | Plant response rating, Sugarbeets (sugar beet; [6])
0: Rape plant response rating (rape; [1]) | Plant response rating, Rape (rape; [3]) | Plant response rating, Rape (rape; [5]) | Plant response rating, Rape (rape; [6]) | Rape plant response rating (rape; [8]) | Nutsedge plant response rating (purple nutsedge; [1]) | Plant response rating, Nutsedge (purple nutsedge; [3]) | Plant response rating, Nutsedge (purple nutsedge; [5]) | Plant response rating, Nutsedge (purple nutsedge; [6]) | Nutsedge plant response rating (purple nutsedge; [7]) | Nutsedge plant response rating (purple nutsedge; [8]) | Rice plant response rating (rice; [9]) | Plant response rating, Rice (0 to 10 scale, 0 is no effect, 10 is complete control) (rice; [10]) | Rice plant response rating (0 to 10 scale, 0 is no effect, 10 is complete control) (rice; [11]) | Rice plant response rating (rice; [12]) | Wild oats plant response rating (wild oat; [1]) | Wild oats plant response rating (wild oat; [8]) | Plant response rating, Soybean (soybean; [5]) | Plant response rating, Soybean (soybean; [6]) | Soybean plant response rating (soybean; [7]) | Wheat plant response rating (wheat; [1]) | Plant response rating, Wheat (wheat; [5]) | Wheat plant response rating (wheat; [8]) | Velvetleaf plant response rating (velvetleaf; [1]) | Plant response rating, Velvetleaf (velvetleaf; [5]) | Velvetleaf plant response rating (velvetleaf; [8]) | Redroot pigweed plant response rating (pigweed; [1]) | Redroot pigweed plant response rating (pigweed; [8]) | B. signalgrass plant response rating (surinam grass; [1]) | B. signalgrass plant response rating (surinam grass; [4]) | Cocklebur plant response rating (cocklebur; [1]) | Cocklebur plant response rating (cocklebur; [4]) | Plant response rating, Cocklebur (cocklebur; [5]) | Plant response rating, Cocklebur (cocklebur; [6]) | Cocklebur plant response rating (cocklebur; [7]) | Cocklebur plant response rating (cocklebur; [8]) | Bedstraw plant response rating (bedstraw; Rate 31 g/ha, visual rating, scale 0 to 10 (0 no effect, 10 complete control)) | Barnyardgrass plant response rating (bamyardgrass; [9]) | Plant response rating, Barnyardgrass (0 to 10 scale, 0 is no effect, 10 is complete control) (bamyardgrass; [10]) | Barnyardgrass plant response rating (0 to 10 scale, 0 is no effect, 10 is complete control) (bamyardgrass; [11]) | Barnyardgrass plant response rating (bamyardgrass; [12]) | Corn plant response rating (corn; [1]) | Plant response rating, Corn (corn; [2]) | Plant response rating, Corn (corn; [3]) | Corn plant response rating (corn; [4]) | Plant response rating, Corn (corn; [5]) | Corn plant response rating (corn; [8]) | Plant response rating, Morningglory (morningglory; [5]) | Plant response rating, Morningglory (morningglory; [6]) | Morningglory plant response rating (morningglory; [7]) | S. Flatsedge plant response rating (smallflower flatsedge; [9]) | Plant response rating, S. Flatsedge (0 to 10 scale, 0 is no effect, 10 is complete control) (smallflower flatsedge; [10]) | S. Flatsedge plant response rating (0 to 10 scale, 0 is no effect, 10 is complete control) (smallflower flatsedge; [11]) | S. Flatsedge plant response rating (smallflower flatsedge; [12]) | Sugarbeets plant response rating (sugar beet; [1]) | Plant response rating, Sugarbeets (sugar beet; [3]) | Plant response rating, Sugarbeets (sugar beet; [5]) | Sugarbeets plant response rating (sugar beet; [8]) | Ducksalad plant response rating (duck salad; [9]) | Plant response rating, Ducksalad (0 to 10 scale, 0 is no effect, 10 is complete control) (duck salad; [10]) | Ducksalad plant response rating (0 to 10 scale, 0 is no effect, 10 is complete control) (duck salad; [11]) | Ducksalad plant response rating (duck salad; [12])
2: Plant response rating, Crabgrass (crabgrass; [2]) | Crabgrass plant response rating (crabgrass; [8]) | Blackgrass plant response rating (blackgrass; [4]) | Plant response rating, Wild oats (wild oat; [5]) | Plant response rating, Soybean (soybean; [3]) | Plant response rating, Velvetleaf (velvetleaf; [3]) | Plant response rating, Redroot pigweed (pigweed; [5]) | Plant response rating, B. signalgrass (surinam grass; [5]) | Plant response rating, Cocklebur (cocklebur; [2]) | Plant response rating, Cocklebur (cocklebur; [3])
6: Plant response rating, Blackgrass (blackgrass; [5]) | Plant response rating, Redroot pigweed (pigweed; [3])
7: Plant response rating, Crabgrass (crabgrass; [3]) | Blackgrass plant response rating (blackgrass; [1]) | Blackgrass plant response rating (blackgrass; [8]) | Plant response rating, Redroot pigweed (pigweed; [6]) | Plant response rating, B. signalgrass (surinam grass; [3]) | Plant response rating, Morningglory (morningglory; [3]) | Sugarbeets plant response rating (sugar beet; [7]) | Giant foxtail plant response rating (giant foxtail; [1]) | Giant foxtail plant response rating (giant foxtail; [8])
5: Rape plant response rating (rape; [7]) | Velvetleaf plant response rating (velvetleaf; [7]) | Plant response rating, B. signalgrass (surinam grass; [2]) | Morningglory plant response rating (morningglory; [8])
10: Plant response rating, Crabgrass (crabgrass; [5]) | Plant response rating, Crabgrass (crabgrass; [6]) | Crabgrass plant response rating (crabgrass; [7]) | Plant response rating, Blackgrass (blackgrass; [2]) | Plant response rating, Blackgrass (blackgrass; [3]) | Blackgrass plant response rating (blackgrass; [7]) | Wild oats plant response rating (wild oat; [7]) | Redroot pigweed plant response rating (pigweed; [7]) | Bedstraw plant response rating (bedstraw; Rate 250 g/ha, scale of 0 to 10 where 0 is no effect and 10 is complete control) | Giant foxtail plant response rating (giant foxtail; [4]) | Plant response rating, Giant foxtail (giant foxtail; [5]) | Plant response rating, Giant foxtail (giant foxtail; [6]) | Giant foxtail plant response rating (giant foxtail; [7])
